Source: PubChem BioAssay AID2060618 (Molecular Pharmacology Branch, DTP, NCI, 2025)
One block for each compound: values may come before it.

Test system: 454973-116-R2-J3-PDC spheroids, percent test/control viability
Experiment: Anticancer human tumor 454973-116-R2-J3-PDC patient-derived pancreatic carcinoma cell line growth inhibition [CLK]
Conditions: spheroids with HUVEC and MSC; for IC50: curve of first compound; for viability, T/C: stronger effect = lower value
Summary of the method: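 Multi-cell-type spheroids combined patient-derived tumor cells with HUVEC endothelial cells and human mesenchymal stem cells. Paired agents were dosed in half-log steps down from about clinical Cmax, or from 10 microM where Cmax was unknown.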

[1] = second compound 0.0316 µM, first compound 0.0316 µM
[2] = second compound 0.0316 µM, first compound 0.1 µM
[3] = second compound 0.0316 µM, first compound 0.316 µM
[4] = second compound 0.0316 µM, first compound 1 µM
[5] = second compound 0.0316 µM, first compound 3.16 µM
[6] = second compound 0.0316 µM, first compound 10 µM
[7] = second compound 0.1 µM, first compound 0.0316 µM
[8] = second compound 0.1 µM, first compound 0.1 µM
[9] = second compound 0.1 µM, first compound 0.316 µM
[10] = second compound 0.1 µM, first compound 1 µM
[11] = second compound 0.1 µM, first compound 3.16 µM
[12] = second compound 0.1 µM, first compound 10 µM
[13] = second compound 0.316 µM, first compound 0.0316 µM
[14] = second compound 0.316 µM, first compound 0.1 µM
[15] = second compound 0.316 µM, first compound 0.316 µM
[16] = second compound 0.316 µM, first compound 1 µM
[17] = second compound 0.316 µM, first compound 3.16 µM
[18] = second compound 0.316 µM, first compound 10 µM
[19] = second compound 1 µM, first compound 0.0316 µM
[20] = second compound 1 µM, first compound 0.1 µM
[21] = second compound 1 µM, first compound 0.316 µM
[22] = second compound 1 µM, first compound 1 µM
[23] = second compound 1 µM, first compound 3.16 µM
[24] = second compound 1 µM, first compound 10 µM
[25] = second compound 3.16 µM, first compound 0.0316 µM
[26] = second compound 3.16 µM, first compound 0.1 µM
[27] = second compound 3.16 µM, first compound 0.316 µM
[28] = second compound 3.16 µM, first compound 1 µM
[29] = second compound 3.16 µM, first compound 3.16 µM
[30] = second compound 3.16 µM, first compound 10 µM
[31] = second compound 10 µM, first compound 0.0316 µM
[32] = second compound 10 µM, first compound 0.1 µM
[33] = second compound 10 µM, first compound 0.316 µM
[34] = second compound 10 µM, first compound 1 µM
[35] = second compound 10 µM, first compound 3.16 µM
[36] = second compound 10 µM, first compound 10 µM
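Also: spheroids exposed to compounds for 7 days before readout.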

SMILES: O=c1[nH]cc(F)c(=O)[nH]1 + CN1CCN(c2cc(C(=O)Nc3cc4cc(-c5cnn(C)c5)ccc4cn3)ccn2)CC1
IC50 (second compound 0.0316 µM): 1.94 µM
IC50 (second compound 0.1 µM): 1.33 µM
IC50 (second compound 0.316 µM): < 0.0316 µM
IC50 (second compound 1 µM): < 0.0316 µM
IC50 (second compound 3.16 µM): < 0.0316 µM
IC50 (second compound 10 µM): < 0.0316 µM
viability, T/C [1]: 93%
viability, T/C [2]: 102%
viability, T/C [3]: 95.2%
viability, T/C [4]: 71.3%
viability, T/C [5]: 30.6%
viability, T/C [6]: 37.9%
viability, T/C [7]: 73%
viability, T/C [8]: 86.7%
viability, T/C [9]: 73.5%
viability, T/C [10]: 57.1%
viability, T/C [11]: 27.7%
viability, T/C [12]: 30.2%
viability, T/C [13]: 2.26%
viability, T/C [14]: 2.2%
viability, T/C [15]: 3.74%
viability, T/C [16]: 2.11%
viability, T/C [17]: 3.66%
viability, T/C [18]: 2.07%
viability, T/C [19]: 0.1%
viability, T/C [20]: 0.11%
viability, T/C [21]: 0.74%
viability, T/C [22]: 0.06%
viability, T/C [23]: 0.05%
viability, T/C [24]: 0.08%
viability, T/C [25]: 0.14%
viability, T/C [26]: 0.39%
viability, T/C [27]: 0.44%
viability, T/C [28]: 0.1%
viability, T/C [29]: 0.14%
viability, T/C [30]: 0.59%
viability, T/C [31]: 0.05%
viability, T/C [32]: 0.14%
viability, T/C [33]: 0.14%
viability, T/C [34]: 0.17%
viability, T/C [35]: 0.16%
viability, T/C [36]: 0.17%

IC50 (second compound 0.0316 µM): < 0.0316 µM
IC50 (second compound 0.1 µM): < 0.0316 µM
IC50 (second compound 0.316 µM): < 0.0316 µM
IC50 (second compound 1 µM): < 0.0316 µM
IC50 (second compound 3.16 µM): < 0.0316 µM
IC50 (second compound 10 µM): < 0.0316 µM
SMILES: Nc1ccn(C2OC(CO)C(O)C2(F)F)c(=O)n1 (stereo not given) + CNC(=O)c1ccc(Nc2nc(OC3CCCC3)c3c(-c4ccc5nc(C)oc5c4)c[nH]c3n2)c(OC)c1
viability, T/C [1]: 10.8%
viability, T/C [2]: 9.2%
viability, T/C [3]: 11.1%
viability, T/C [4]: 7.75%
viability, T/C [5]: 7.61%
viability, T/C [6]: 8.18%
viability, T/C [7]: 9.97%
viability, T/C [8]: 8.66%
viability, T/C [9]: 10.6%
viability, T/C [10]: 9.85%
viability, T/C [11]: 11.6%
viability, T/C [12]: 10.8%
viability, T/C [13]: 11.5%
viability, T/C [14]: 10.7%
viability, T/C [15]: 11.8%
viability, T/C [16]: 10.4%
viability, T/C [17]: 10.3%
viability, T/C [18]: 8.88%
viability, T/C [19]: 11.7%
viability, T/C [20]: 6.57%
viability, T/C [21]: 7.9%
viability, T/C [22]: 9.2%
viability, T/C [23]: 7.06%
viability, T/C [24]: 8.15%
viability, T/C [25]: 11.8%
viability, T/C [26]: 6.57%
viability, T/C [27]: 7.14%
viability, T/C [28]: 9.4%
viability, T/C [29]: 7.28%
viability, T/C [30]: 7.11%
viability, T/C [31]: 13%
viability, T/C [32]: 8.08%
viability, T/C [33]: 4.66%
viability, T/C [34]: 6.23%
viability, T/C [35]: 9.5%
viability, T/C [36]: 8.08%

IC50 (second compound 0.0316 µM): 5.84 µM
IC50 (second compound 0.1 µM): 4.82 µM
IC50 (second compound 0.316 µM): < 0.0316 µM
IC50 (second compound 1 µM): < 0.0316 µM
IC50 (second compound 3.16 µM): < 0.0316 µM
IC50 (second compound 10 µM): < 0.0316 µM
SMILES: C=C(F)C(=O)N1CCN(c2nc(OCC3CCCN3C)nc3c2CCN(c2cccc4cccc(Cl)c24)C3)CC1CC#N (stereo not given) + CNC(=O)c1ccc(Nc2nc(OC3CCCC3)c3c(-c4ccc5nc(C)oc5c4)c[nH]c3n2)c(OC)c1
viability, T/C [1]: 111%
viability, T/C [2]: 114%
viability, T/C [3]: 109%
viability, T/C [4]: 109%
viability, T/C [5]: 106%
viability, T/C [6]: 1.38%
viability, T/C [7]: 96.9%
viability, T/C [8]: 85%
viability, T/C [9]: 75.7%
viability, T/C [10]: 89.8%
viability, T/C [11]: 78.3%
viability, T/C [12]: 0.85%
viability, T/C [13]: 39.6%
viability, T/C [14]: 36.1%
viability, T/C [15]: 38.2%
viability, T/C [16]: 37.2%
viability, T/C [17]: 39.5%
viability, T/C [18]: 0.19%
viability, T/C [19]: 35.2%
viability, T/C [20]: 27.1%
viability, T/C [21]: 30.4%
viability, T/C [22]: 36.5%
viability, T/C [23]: 31.1%
viability, T/C [24]: 0.5%
viability, T/C [25]: 29.8%
viability, T/C [26]: 27.9%
viability, T/C [27]: 28.5%
viability, T/C [28]: 34.6%
viability, T/C [29]: 27.2%
viability, T/C [30]: 0.29%
viability, T/C [31]: 28.2%
viability, T/C [32]: 24.4%
viability, T/C [33]: 26.5%
viability, T/C [34]: 25.3%
viability, T/C [35]: 19.2%
viability, T/C [36]: 0.25%

SMILES: CC(Nc1ccc2c(c1)OCCn1cc(N3C(=O)OCC3C(F)F)nc1-2)C(N)=O (stereo not given) + CN1CCN(c2cc(C(=O)Nc3cc4cc(-c5cnn(C)c5)ccc4cn3)ccn2)CC1
IC50 (second compound 0.0316 µM): > 10 µM
IC50 (second compound 0.1 µM): 0.332 µM
IC50 (second compound 0.316 µM): < 0.0316 µM
IC50 (second compound 1 µM): < 0.0316 µM
IC50 (second compound 3.16 µM): < 0.0316 µM
IC50 (second compound 10 µM): < 0.0316 µM
viability, T/C [1]: 91.9%
viability, T/C [2]: 82.3%
viability, T/C [3]: 81.4%
viability, T/C [4]: 68.3%
viability, T/C [5]: 64.8%
viability, T/C [6]: 53.1%
viability, T/C [7]: 67.4%
viability, T/C [8]: 60.2%
viability, T/C [9]: 49.9%
viability, T/C [10]: 41.8%
viability, T/C [11]: 34%
viability, T/C [12]: 30.2%
viability, T/C [13]: 1.28%
viability, T/C [14]: 1.34%
viability, T/C [15]: 0.74%
viability, T/C [16]: 0.59%
viability, T/C [17]: 1.78%
viability, T/C [18]: 0.43%
viability, T/C [19]: 0.08%
viability, T/C [20]: 0.11%
viability, T/C [21]: 3.02%
viability, T/C [22]: 0.1%
viability, T/C [23]: 0.88%
viability, T/C [24]: 0.07%
viability, T/C [25]: 0.11%
viability, T/C [26]: 0.14%
viability, T/C [27]: 0.15%
viability, T/C [28]: 0.13%
viability, T/C [29]: 0.13%
viability, T/C [30]: 0.38%
viability, T/C [31]: 3.01%
viability, T/C [32]: 0.2%
viability, T/C [33]: 0.2%
viability, T/C [34]: 0.22%
viability, T/C [35]: 0.21%
viability, T/C [36]: 0.23%

SMILES: COc1ccc([C@@H](O)c2cc(-c3ncnc4cc(N5CCOCC5)ccc34)c(F)cc2Cl)nn1 + CN1CCN(c2cc(C(=O)Nc3cc4cc(-c5cnn(C)c5)ccc4cn3)ccn2)CC1
IC50 (second compound 0.0316 µM): > 10 µM
IC50 (second compound 0.1 µM): 2.72 µM
IC50 (second compound 0.316 µM): < 0.0316 µM
IC50 (second compound 1 µM): < 0.0316 µM
IC50 (second compound 3.16 µM): < 0.0316 µM
IC50 (second compound 10 µM): < 0.0316 µM
viability, T/C [1]: 93.8%
viability, T/C [2]: 107%
viability, T/C [3]: 101%
viability, T/C [4]: 90.8%
viability, T/C [5]: 73.5%
viability, T/C [6]: 54.9%
viability, T/C [7]: 74.8%
viability, T/C [8]: 79.1%
viability, T/C [9]: 71.5%
viability, T/C [10]: 66.5%
viability, T/C [11]: 47.4%
viability, T/C [12]: 28.6%
viability, T/C [13]: 1.76%
viability, T/C [14]: 1.85%
viability, T/C [15]: 2.44%
viability, T/C [16]: 1.05%
viability, T/C [17]: 1.4%
viability, T/C [18]: 2.15%
viability, T/C [19]: 0.11%
viability, T/C [20]: 0.11%
viability, T/C [21]: 2.22%
viability, T/C [22]: 0.08%
viability, T/C [23]: 0.07%
viability, T/C [24]: 0.06%
viability, T/C [25]: 0.09%
viability, T/C [26]: 0.15%
viability, T/C [27]: 0.16%
viability, T/C [28]: 0.14%
viability, T/C [29]: 0.11%
viability, T/C [30]: 0.72%
viability, T/C [31]: 2.12%
viability, T/C [32]: 0.13%
viability, T/C [33]: 0.29%
viability, T/C [34]: 0.16%
viability, T/C [35]: 0.99%
viability, T/C [36]: 0.16%
